Source: patent US7098219B2, “Inhibitors of cellular efflux pumps of microbes” (Wockhart Limited, priority 2000, dated 2006)

What was measured:
[1] = system: Pseudomonas aeruginosa 23587; test: Antibiotic diffusion assay, levofloxacin plate versus water control plate; format: cell-based; conditions: zone of inhibition in levofloxacin (5 mcg/ml) plate minus water control plate; Mueller Hinton Agar, 35° C. 20 hours
Protocol: (§1) Testing method for Inhibition of the Efflux Pumps of Pseudomonas aeruzinosa 23587, E. coli 2051, Streptococcus pneumoniae 3514 and Streptococcus pyozenus 26-00
Antibiotic Diffusion Assay
The activity of efflux pump inhibitor was also assessed using an antibiotic diffusion assay. For this assay Pseudomonas aeruginosa 23587 is used. Pseudomonas aeruginosa 23587 is a clinical isolate containing multiple efflux pumps which can be mexAB, mexCD, mexEF but not limited to mex classification only. Pseudomonas aeruginosa are grown in tryptic soya broth for 20 hours at 35° C. Two antibiotic assay plates are prepared in Mueller Hinton Agar using above inoculum. The bacterial count in a plate is 1×10^6 cells/ml. In one of the plates, levofloxacin is incorporated at 5 mcg/ml, while in the control plate an equivalent amount of water is added. […]. The plates are incubated at 35° C. for 20 hours and the zone of inhibition was recorded in mm (table 2). The difference in the diameter of zone of inhibition was calculated by subtracting from the diameter of the zone of inhibition in the levofloxacin containing plate the diameter of the zone of inhibition in the water containing control plate. Example, if the diameter of the zone of inhibition in the levofloxacin plate is X mm and the diameter of the zone of inhibition in the control plate is Y mm, the difference Z=X−Y and is a measure of the activity of the efflux pump inhibitor.

[2] = system: Mef Efflux Pump of Streptococcus pneumoniae 3514 and Streptococcus pyogenes 26-00; test: Two plate diffusion assay for macrolide (Mef) efflux pump inhibitors, azithromycin plate versus control plate; format: cell-based; conditions: zone of inhibition in antibiotic plate (method: azithromycin 0.5 mcg/ml; footnote: levofloxacin) minus water control plate; strain not given
[3] = system: E. coli 2051; test: Antibiotic diffusion assay, levofloxacin plate versus water control plate; format: cell-based, Escherichia coli; conditions: zone of inhibition in levofloxacin (15 mcg/ml) plate minus water control plate; Mueller Hinton Agar, 35° C. 20 hours
Protocol: as §1
The activity of an efflux pump inhibitor of E. coli 2051 was also assessed using an antibiotic diffusion assay. For this assay E. coli 2051 is used. E. coli 2051 is a clinical isolate containing multiple efflux pumps. E. coli 2051 are grown in tryptic soya broth for 20 hours at 35° C. Two antibiotic assay plates are prepared in Mueller Hinton Agar using above inoculum. The bacterial count in a plate is 1×10^6 cells/ml. In one of the plates, levofloxacin is incorporated at 15 mcg/ml, while in the control plate an equivalent amount of water is added. […]. The plates are incubated at 35° C. for 20 hours and the zone of inhibition was recorded in mm (table 3) . The difference in the diameter of zone of inhibition was calculated by subtracting from the zone of inhibition in the levofloxacin containing plate the diameter of the zone of inhibition in the control plate.

[4] = system: Staphylococcus aureus 1199 B NorA+; format: cell-based; conditions: combination with ciprofloxacin, broth microdilution checkerboard, 35° C. 20 hours; FIC index ≦0.5 synergistic, 0.5–2.0 additive, >2.0 antagonistic
Summary of the method: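 Broth microdilution checkerboard with ciprofloxacin against S. aureus 1199B NorA+, pump inhibitor titrated along one axis; inoculum 5×10^5 CFU/ml in Mueller Hinton broth, 35 °C for 20 hours. Growth read by visible turbidity, confirmed by plate reader; FIC index derived from inhibitor MIC in combination versus alone.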

Row | Molecule | Difference in Zone diameter Z1 (mm) [1] [mm] | Difference in Zone diameter Z1 (mm) [2] [mm] | Difference in Zone diameter Z1 (mm) [3] [mm] | FIC INDEX [4]
1 | COc1c(N2CCC(N)C(C)C2)c(F)cc2c(=O)c(C(=O)O)cn(C3CC3)c12 (stereo not shown) [Example 3 (P. aeruginosa), 1-Cyclopropyl-6-fluoro-8-methoxy-1,4-dihydro-7-(4′-amino-3′-methylpiperidin-1-yl)-4-oxo-quinoline-3-carboxylic acid] | 7 | 26 | 10 | –
2 | C[C@H]1CCc2c(N3CCC(O)CC3)c(F)cc3c(=O)c(C(=O)[O-])cn1c23.C[N+](C)(C)CCO [Example 22 (P. aeruginosa), S-(−)-9-Fluoro-6,7-dihydro-8-(4′-hydroxypiperidin-1-yl)-5-methyl-1-oxo-1H,5H-benzo[i,j]quinolizine-2-carboxylic acid, choline salt] | 3 | – | 9 | –
3 | C[C@H]1CCc2c(N3CCC(O)CC3)c(F)cc3c(=O)c(C(=O)O)cn1c23.OCCNCCO [Example 24 (P. aeruginosa), S-(−)-9-Fluoro-6,7-dihydro-8-(4′-hydroxypiperidin-1-yl)-5-methyl-1-oxo-1H,5H-benzo[i,j]quinolizine-2-carboxylic acid, diethanolamine salt] | 4 | – | 11 | –
4 | CC(C)C[C@@H](N)C(=O)OC1CCN(c2c(F)cc3c(=O)c(C(=O)O)cn4c3c2CC[C@@H]4C)CC1.Cl [Example 29 (P. aeruginosa), (S)-(−)-9-Fluoro-6,7-dihydro-8-{4′-(D-leucyloxy)piperidin-1-yl}-5-methyl-1-oxo-1H,5H-benzo[i,j]quinolizine-2-carboxylic acid hydrochloride] | 12 | – | 18 | –
5 | (R)-(+)-9,8-fluoro-8-fluoro-6,7-dihydro-5-methyl-1-oxo-1H,5H-benzo[i,j]quinolizine-2-carboxylate Methoxy phe-lys-OMe [Example 32 (P. aeruginosa)] | 8 | – | 11 | –
6 | (S)-(−)-Morpholinoethyl-9-fluoro-6,7-dihydro-8-(4′-hydroxypiperidin-1-yl)-5-methyl-1-oxo-1H,5H-benzo[i,j]quinolizine-2-carboxylic acid [Example 58 (NorA)] | 2 | – | 8 | 0.370
7 | S-(-9-Fluoro-6,7-dihydro-8-(4′-hydroxypiperidin-1-yl)-5-methyl-1-oxo-1H,5H-benzo[i,j]quinolizine-2-carboxylic acid, 1-hydroxyethylpyrrolidine salt [Example 23 (P. aeruginosa)] | 3 | – | 11 | –
